Data set [1] deals with all mosquito P450s of the panel apart from CYP6Z2 (CYP6M2, CYP6P2, CYP6P3, CYP6P4, CYP9J5). The data set can be described thus: in vitro. The conditions noted are these: Anopheles gambiae.
Data set [2] concerns the target T1, CYP9J5 (Anopheles gambiae, UniProt Q5TN57).
T1 sequence (Q5TN57 1-545): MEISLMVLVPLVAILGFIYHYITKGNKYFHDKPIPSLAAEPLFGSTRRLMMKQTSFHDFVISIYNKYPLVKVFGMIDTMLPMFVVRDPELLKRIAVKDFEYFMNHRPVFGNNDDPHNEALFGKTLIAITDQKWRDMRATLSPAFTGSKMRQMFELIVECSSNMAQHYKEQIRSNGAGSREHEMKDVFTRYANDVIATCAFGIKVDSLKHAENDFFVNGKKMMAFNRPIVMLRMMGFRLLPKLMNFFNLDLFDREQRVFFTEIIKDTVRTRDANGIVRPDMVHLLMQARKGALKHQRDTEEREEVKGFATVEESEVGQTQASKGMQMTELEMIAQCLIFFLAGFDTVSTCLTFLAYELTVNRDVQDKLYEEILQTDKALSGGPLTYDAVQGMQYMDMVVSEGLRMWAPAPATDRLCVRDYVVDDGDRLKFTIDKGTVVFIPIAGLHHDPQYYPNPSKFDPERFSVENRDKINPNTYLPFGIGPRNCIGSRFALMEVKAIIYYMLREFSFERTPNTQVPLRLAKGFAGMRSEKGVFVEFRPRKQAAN
T1 sequence (Q86QH5 1-679 partner): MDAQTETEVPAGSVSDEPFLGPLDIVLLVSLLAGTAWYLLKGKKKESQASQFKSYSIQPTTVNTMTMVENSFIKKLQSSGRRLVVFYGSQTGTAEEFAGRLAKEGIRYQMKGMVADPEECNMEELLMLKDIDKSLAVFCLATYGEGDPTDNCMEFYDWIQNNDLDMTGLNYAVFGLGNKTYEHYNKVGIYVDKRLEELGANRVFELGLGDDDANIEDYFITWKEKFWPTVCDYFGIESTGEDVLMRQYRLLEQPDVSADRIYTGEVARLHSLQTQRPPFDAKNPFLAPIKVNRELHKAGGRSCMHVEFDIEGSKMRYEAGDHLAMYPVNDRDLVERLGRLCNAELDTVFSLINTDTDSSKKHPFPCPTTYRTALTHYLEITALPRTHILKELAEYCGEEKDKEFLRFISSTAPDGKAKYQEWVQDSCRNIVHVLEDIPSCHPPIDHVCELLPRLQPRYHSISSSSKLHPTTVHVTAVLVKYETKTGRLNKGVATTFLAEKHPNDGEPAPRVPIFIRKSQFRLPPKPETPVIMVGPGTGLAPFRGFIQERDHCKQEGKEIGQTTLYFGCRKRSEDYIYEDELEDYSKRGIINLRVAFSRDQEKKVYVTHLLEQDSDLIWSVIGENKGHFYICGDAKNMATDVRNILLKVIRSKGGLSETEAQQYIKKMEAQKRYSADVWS
T1 sequence (Q86QH4 1-128 partner): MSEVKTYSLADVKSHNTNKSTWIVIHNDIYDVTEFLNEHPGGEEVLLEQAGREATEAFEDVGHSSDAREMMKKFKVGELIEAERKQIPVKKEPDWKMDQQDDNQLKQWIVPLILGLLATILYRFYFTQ
The experiment in a line: biochemical.

For data set [3], the target named is CYP6M2 (Anopheles gambiae, UniProt Q7Q449). The data set can be described thus: biochemical.
The target in data set [4] is T2, CYP6P3 (Anopheles gambiae, UniProt Q8T632).
T2 sequence (Q8T632 1-509): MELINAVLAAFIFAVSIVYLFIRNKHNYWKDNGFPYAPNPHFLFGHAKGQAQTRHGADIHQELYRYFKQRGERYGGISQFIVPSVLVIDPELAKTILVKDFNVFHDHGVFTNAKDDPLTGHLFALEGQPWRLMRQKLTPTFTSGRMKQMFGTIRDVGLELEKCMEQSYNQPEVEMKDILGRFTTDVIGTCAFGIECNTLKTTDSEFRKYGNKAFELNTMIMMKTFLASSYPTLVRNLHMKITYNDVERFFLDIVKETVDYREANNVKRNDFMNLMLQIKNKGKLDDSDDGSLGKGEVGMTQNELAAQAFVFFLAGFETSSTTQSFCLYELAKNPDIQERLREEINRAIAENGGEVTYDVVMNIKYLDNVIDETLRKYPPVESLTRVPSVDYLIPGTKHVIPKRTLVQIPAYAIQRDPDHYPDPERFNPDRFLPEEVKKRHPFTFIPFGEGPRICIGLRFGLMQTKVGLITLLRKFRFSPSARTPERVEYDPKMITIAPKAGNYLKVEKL
T2 sequence (Q86QH5 1-679 partner): T1 sequence (Q86QH5 1-679 partner)
T2 sequence (Q86QH4 1-128 partner): T1 sequence (Q86QH4 1-128 partner)
The data set can be described thus: biochemical.

The target in data set [5] is T3, CYP6Z2 (Anopheles gambiae, UniProt A8I285).
T3 sequence (A8I285 1-492): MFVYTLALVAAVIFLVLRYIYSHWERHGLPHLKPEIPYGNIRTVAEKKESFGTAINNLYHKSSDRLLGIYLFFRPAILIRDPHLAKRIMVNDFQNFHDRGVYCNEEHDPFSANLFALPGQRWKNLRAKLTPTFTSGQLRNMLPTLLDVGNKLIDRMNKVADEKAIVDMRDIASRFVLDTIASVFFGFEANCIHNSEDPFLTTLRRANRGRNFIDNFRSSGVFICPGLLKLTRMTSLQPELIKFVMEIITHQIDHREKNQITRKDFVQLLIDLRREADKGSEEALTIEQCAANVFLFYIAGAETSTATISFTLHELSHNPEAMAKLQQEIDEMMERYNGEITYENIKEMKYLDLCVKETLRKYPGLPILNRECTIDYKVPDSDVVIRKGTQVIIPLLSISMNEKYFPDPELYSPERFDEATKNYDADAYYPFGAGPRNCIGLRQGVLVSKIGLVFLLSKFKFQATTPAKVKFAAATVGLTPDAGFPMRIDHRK
T3 sequence (Q86QH5 1-679 partner): T1 sequence (Q86QH5 1-679 partner)
T3 sequence (Q86QH4 1-128 partner): T1 sequence (Q86QH4 1-128 partner)
The data set can be described thus: biochemical.

In data set [6] the target is T4, CYP6P2 (Anopheles gambiae, UniProt Q8T629, V81I).
T4 sequence (Q8T629 1-507 V81I): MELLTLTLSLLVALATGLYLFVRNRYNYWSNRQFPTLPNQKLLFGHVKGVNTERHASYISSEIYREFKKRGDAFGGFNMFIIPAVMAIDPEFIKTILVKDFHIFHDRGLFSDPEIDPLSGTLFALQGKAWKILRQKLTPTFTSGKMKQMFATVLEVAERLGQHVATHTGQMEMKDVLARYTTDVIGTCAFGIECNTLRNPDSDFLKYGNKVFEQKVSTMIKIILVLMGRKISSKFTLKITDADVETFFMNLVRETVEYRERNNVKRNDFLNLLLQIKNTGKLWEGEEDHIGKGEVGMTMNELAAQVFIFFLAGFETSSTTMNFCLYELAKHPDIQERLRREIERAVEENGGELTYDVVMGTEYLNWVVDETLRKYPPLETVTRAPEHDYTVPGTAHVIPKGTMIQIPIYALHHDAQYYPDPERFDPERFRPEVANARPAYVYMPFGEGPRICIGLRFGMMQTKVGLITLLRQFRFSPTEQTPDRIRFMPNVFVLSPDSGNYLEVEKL
T4 sequence (Q7QFI3 1-587 partner): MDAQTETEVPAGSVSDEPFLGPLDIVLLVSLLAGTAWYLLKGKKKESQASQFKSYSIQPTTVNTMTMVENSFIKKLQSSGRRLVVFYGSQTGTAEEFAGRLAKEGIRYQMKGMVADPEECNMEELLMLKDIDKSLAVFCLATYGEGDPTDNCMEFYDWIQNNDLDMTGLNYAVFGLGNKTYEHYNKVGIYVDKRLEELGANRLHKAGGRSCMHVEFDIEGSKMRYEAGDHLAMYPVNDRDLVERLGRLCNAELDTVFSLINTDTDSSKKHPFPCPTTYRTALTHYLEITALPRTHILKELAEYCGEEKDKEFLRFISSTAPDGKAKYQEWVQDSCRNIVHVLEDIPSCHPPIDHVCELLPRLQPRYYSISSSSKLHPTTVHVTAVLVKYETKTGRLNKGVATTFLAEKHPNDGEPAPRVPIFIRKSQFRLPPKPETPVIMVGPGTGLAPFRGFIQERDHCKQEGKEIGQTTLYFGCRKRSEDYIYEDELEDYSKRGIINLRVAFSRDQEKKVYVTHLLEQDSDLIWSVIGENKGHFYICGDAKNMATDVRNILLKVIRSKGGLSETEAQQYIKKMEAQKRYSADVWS
T4 sequence (Q86QH4 1-128 partner): T1 sequence (Q86QH4 1-128 partner)
The experiment in a line: biochemical. The conditions noted are these: IC50 of DEF metabolism.

These results are taken from PMC6399515 (Insect Biochemistry and Molecular Biology, 2016).

CYP6M2, sequence (Q7Q449 1-499, one chain of several): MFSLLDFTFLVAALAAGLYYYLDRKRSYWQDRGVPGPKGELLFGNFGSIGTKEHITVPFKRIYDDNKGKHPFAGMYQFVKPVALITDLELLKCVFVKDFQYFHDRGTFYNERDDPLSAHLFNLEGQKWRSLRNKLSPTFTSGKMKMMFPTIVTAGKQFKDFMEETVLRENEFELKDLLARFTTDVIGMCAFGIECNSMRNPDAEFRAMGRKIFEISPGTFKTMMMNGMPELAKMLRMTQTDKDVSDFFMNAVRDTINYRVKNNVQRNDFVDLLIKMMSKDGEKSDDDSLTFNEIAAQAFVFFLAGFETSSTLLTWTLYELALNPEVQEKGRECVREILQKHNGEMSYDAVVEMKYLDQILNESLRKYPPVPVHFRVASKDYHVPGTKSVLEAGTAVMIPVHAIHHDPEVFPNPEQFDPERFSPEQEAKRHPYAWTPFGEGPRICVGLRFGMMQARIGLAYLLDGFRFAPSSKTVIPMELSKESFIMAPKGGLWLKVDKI

On to `CC1(C)[C@H](C(=O)O[C@H](C#N)c2cccc(Oc3ccccc3)c2)[C@@H]1C=C(Br)Br` [Deltamethrin, (S)-α-cyano-3-phenoxybenzyl (1R,3R)-cis-2,2-dimethyl-3-(2,2-dibromovinyl)-cyclopropanecarboxylate], for which the IC50 (as a rule, the point on the concentration scale where inhibition reaches its midpoint) in data set [1] (pH 7.4, IC50 of DEF activity) was 1 to 10 µM; in data set [1] (pH 7.4, category of inhibition of DEF activity), 1 to 10 µM; in data set [2] it was 6.05 µM; in data set [3] it was 4.24 µM; in data set [4], 3.17 µM; in data set [5] (IC50 of DEF metabolism), 14 µM. Besides, the concentration for half-maximal inhibition (IC50) was over 10 µM in data set [5] (category of inhibition of DEF metabolism) and 4.97 µM in data set [6].
